PMC6968641, “N-monoarylacetothioureas as potent urease inhibitors: synthesis, SAR, and biological evaluation” (Journal of Enzyme Inhibition and Medicinal Chemistry, 2019)
≈ marks a conversion by molar mass, not a printed value. Like-named read-outs stand apart in the source and are kept apart here.

Experiments:
H. pylori = test: Minimum inhibitory concentration, broth microdilution (CLSI); format: cell-based, Helicobacter pylori (ATCC 43504); conditions: Helicobacter pylori
Method: H. pylori (ATCC 43504; […] The minimum inhibitory concentration (MIC) values were determined using the broth microdilution protocol according to the methods of the Clinical and Laboratory Standards Institute (CLSI)[21].

[1] = target: T1, urease in intact H. pylori cell (Helicobacter pylori, UniProt P69996); test: Urease inhibition in intact H. pylori cell (indophenol method); format: cell-based
T1 construct: H. pylori urease was replaced by 25 µL of cell suspension (4.0 × 10^7 CFU/mL); endogenous in cells; host or cells: intact H. pylori ATCC 43504 cells

H. pylori urease = target: T2, H. pylori urease (Helicobacter pylori, UniProt P69996); test: Urease inhibition, extracted H. pylori urease (indophenol method); format: biochemical; conditions: IC50 Extracted urease, extracted H. pylori urease
T2 construct: endogenous in cells; host or cells: H. pylori ATCC 43504; sonicated, supernatant desalted on Sephadex G-25 (crude extract)
Method: For urease inhibition assays, 50 mL broth cultures (2.0 × 10^8 CFU/mL) were centrifuged (5000×g, 4 °C) to collect the bacteria, and after washing twice with phosphate-buffered saline (pH 7.4), the H. pylori precipitation was stored at –80 °C for 8 h, and then was returned to room temperature, and after addition of 3 mL of distilled water and protease inhibitors, sonication was performed for 60 s. Following centrifugation (15,000×g, 4 °C), the supernatant was desalted through Sephadex G-25 column (PD-10 columns, Amersham Pharmacia Biotech, Uppsala, Sweden). The resultant crude urease solution was added to an equal volume of glycerol and stored at 4 °C until use in the experiment.
Urease activity was determined in the 96-well assay plate by measuring ammonia production using the indophenol method as described by Weatherburn[20]. Briefly, to each well, 50 µL of urea (10 mM) in phosphate buffer solution was added in a mixture of 25 µL (10 U) of H. pylori urease and 25 µL of the test compound, which was incubated at 37 °C for 0.5 h. Fifty µL of phenol reagent (containing 127 mM phenol and 0.168 mM sodium nitroprusside) and 50 µL of alkali reagent (containing 125 mM NaOH and 0.168 mM NaOCl) were added in turn. The resulted mixture was incubated at 37 °C for another 0.5 h for colouration developing. The increasing absorbance was measured at 630 nm after 50 min using a microplate reader (Molecular Devices, San Jose, CA). Percentage inhibitions were calculated from the following formula (Equation (1)). Experiments were performed in triplicate and AHA was used as reference drug, and the IC50 value was determined as the concentration of compound that give 50% inhibition of maximal activity. As for the urease assay of intact cells, 25 µL (10 U) of H. pylori urease was replaced by 25 µL of cell suspension (4.0 × 10^7 CFU/mL).

[2] = Cytotoxicity MTT assay, P69; format: cell-based; conditions: human, P69 cells (normal prostate cell line), 25 μg/mL
Method: (§1) The stock solutions of the selected compounds (250 µg/mL, in PBS) were prepared in medium. L-02 cells and P69 cells were grown in medium (90% RPMI-1640 medium, 10% foetal bovine serum, 1% penicillin/streptomycin) and maintained at 37 °C in a humidified atmosphere containing 5% CO2, respectively. Cells were seeded in 96-well cell culture plates. On the day when seeding, the cells were exposed to 250 µg/mL of compounds and further cultured for 72 h at 37 °C. Cell proliferation was then determined using the thiazolyl blue tetrazolium bromide (MTT) assay.

Jack bean urease [3] = target: T3, Jack bean urease (Canavalia ensiformis, UniProt P07374); test: Ligand affinity by surface plasmon resonance (SPR); format: binding
T3 construct: purchased
Method: The binding kinetics of selected compounds were assayed via surface plasmon resonance (SPR) using an OPEN SPR instrument (Nicoya Lifesciences, Kitchener, Canada). First, urease dissolved (50 µg/mL) in PBS buffer (1 mM KH2PO4, 155 mM NaCl, 3 mM Na2HPO4-12H2O, pH 7.4), was immobilised to a CM5 chip using a standard amine coupling procedure. Then, SPR measurements were carried out in PBS, and stock solutions were diluted in the same buffer. Data were collected with OpenSPR control software. Experiments were performed by monitoring the refractive index changes as a function of time under constant flow rate of 20 µL/min. The relative amount of inhibitor bound to the urease was determined by measuring the net increase in refractive index over time compared to control running buffer. There is an inline subtraction of reference surface during the run. This change is usually reported in response units (RU). Sensograms were processed and analysed using TraceDrawer software. The binding curves were fit to determine the equilibrium dissociation constant (KD).
In the present paper, the pure Jack bean urease from commercial was used for this assay because of non-availability of pure H. pylori urease. […] For efficient and tight ligand binding, the rate constant koff is of particular interest, because koff has a potential to differentiate indistinguishable compounds with similar affinities.

Jack bean urease [4] = target: T3, Jack bean urease; test: Enzyme kinetic study (indophenol method); format: biochemical
Method: Based on the indophenol method, the velocity of ammonia production (V) was measured in the presence of concentration gradients of urea ([S]) for every specific concentration of selected compounds ([I]). Nonlinear fitting curves to data of V and [S] were used to determine the type of enzyme inhibition based on the general kinetics equation (Equation (1)). Subsequently, the resulted fitting constants ( Km/Vmax(1+[I]/Ki) or 1/Vmax(1+[I]/Ki′) ) and [I] were linearly fitted to give kinetic parameters Ki and Ki', respectively. The experimental assay was performed against a pure urease (Jack bean urease) for the consideration of precision. (1) V=Vmax[S]/Km(1+[I]/Ki)+(1+[I]/K^′i)[S]
Mazzei et al. confirmed that urease shared the mechanism of catalysis and inhibition regardless of the biological sources[27]^,[28]. For excluding the possible interference, a pure urease (Jack bean urease) was therefore used for kinetic assays. As an example, Figure 2 describes the preincubation-time dependence of urease inhibition by b19. The suppressed urease activity maintained at relatively constant values with the increasing preincubation time under different concentrations of b19, resulting in nearly equal IC50 values.
Similarly, kinetic parameters ( Ki and Ki' ) and inhibition types of other compounds were also determined and are shown in Table 3.

[5] = Cytotoxicity MTT assay, L-02; format: cell-based; conditions: human, L-02 cells (normal hepatic cell line), 25 μg/mL
Method: as §1

T3 sequence (P07374 whole entry, looked up): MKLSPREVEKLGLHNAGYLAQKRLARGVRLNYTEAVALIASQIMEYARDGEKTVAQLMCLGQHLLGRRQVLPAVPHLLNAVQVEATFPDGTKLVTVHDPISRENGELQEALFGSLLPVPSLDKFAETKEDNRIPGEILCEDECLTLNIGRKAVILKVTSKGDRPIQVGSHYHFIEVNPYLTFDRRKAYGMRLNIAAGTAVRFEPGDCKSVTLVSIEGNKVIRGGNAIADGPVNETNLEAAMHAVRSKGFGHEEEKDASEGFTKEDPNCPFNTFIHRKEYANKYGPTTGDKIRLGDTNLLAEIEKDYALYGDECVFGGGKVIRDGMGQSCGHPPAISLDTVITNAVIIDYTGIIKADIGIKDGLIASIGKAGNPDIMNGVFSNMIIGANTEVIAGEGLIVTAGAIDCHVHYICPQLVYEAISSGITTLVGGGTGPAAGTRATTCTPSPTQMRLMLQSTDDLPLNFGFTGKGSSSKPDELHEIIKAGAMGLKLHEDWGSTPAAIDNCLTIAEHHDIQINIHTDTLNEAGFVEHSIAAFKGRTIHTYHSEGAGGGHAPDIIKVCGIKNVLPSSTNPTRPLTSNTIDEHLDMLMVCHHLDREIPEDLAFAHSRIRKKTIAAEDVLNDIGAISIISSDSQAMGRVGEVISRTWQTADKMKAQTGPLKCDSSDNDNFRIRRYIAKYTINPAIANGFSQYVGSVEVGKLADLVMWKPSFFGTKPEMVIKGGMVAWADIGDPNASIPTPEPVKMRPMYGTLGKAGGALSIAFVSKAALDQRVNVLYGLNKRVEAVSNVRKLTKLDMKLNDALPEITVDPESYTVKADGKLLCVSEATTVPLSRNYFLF
T1 sequence (P69996 whole entry): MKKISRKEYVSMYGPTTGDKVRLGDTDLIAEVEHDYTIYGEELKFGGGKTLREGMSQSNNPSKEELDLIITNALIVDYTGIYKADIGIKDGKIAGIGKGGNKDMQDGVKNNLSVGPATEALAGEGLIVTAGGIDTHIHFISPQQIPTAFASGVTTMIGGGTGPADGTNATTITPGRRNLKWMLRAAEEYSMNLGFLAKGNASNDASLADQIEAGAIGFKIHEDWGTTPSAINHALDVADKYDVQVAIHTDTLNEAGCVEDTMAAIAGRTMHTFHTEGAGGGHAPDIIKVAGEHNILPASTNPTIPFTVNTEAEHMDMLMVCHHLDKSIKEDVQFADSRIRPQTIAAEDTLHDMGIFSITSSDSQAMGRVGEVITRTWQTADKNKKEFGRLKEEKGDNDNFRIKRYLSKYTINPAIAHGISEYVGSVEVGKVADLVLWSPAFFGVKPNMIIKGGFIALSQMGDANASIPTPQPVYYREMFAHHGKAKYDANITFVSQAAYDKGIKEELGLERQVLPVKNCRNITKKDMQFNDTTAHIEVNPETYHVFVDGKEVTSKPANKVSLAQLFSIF
T1 sequence (P14916 whole entry, further chain): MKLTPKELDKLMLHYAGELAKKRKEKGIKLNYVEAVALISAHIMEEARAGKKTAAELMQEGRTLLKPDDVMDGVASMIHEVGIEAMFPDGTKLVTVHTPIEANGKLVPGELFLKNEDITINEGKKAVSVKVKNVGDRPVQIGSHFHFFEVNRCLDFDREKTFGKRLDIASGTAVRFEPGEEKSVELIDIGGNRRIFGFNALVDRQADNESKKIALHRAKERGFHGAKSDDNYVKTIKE
T2 sequence (P14916 whole entry): as the sequence (P14916 whole entry, further chain) above
T2 sequence (P69996 whole entry): as the sequence (P69996 whole entry) above

In the case of `Cc1ccc(CC(=O)NC(N)=S)cc1` [b16], the MIC (H. pylori; pH=4.0, read-out: MIC pH=4.0) is reported as 2 µM (≈ 0.417 µg/mL), the MIC (H. pylori; pH=7.0, read-out: MIC pH=7.0) is reported as 64 µM (≈ 13.3 µg/mL) and the melting point is reported as 171.2 to 172.5 °C. The IC50 [1] was 35.7 ± 1.7 µM, the IC50 (H. pylori urease) was 5.2 ± 0.32 µM and the viability at 72 h, 25 µg/mL [2] was 89.9%. For the same compound, the Kd (Jack bean urease [3]) was 0.162 ± 0.0038 µM, the kon (Jack bean urease [3]; pH 7.4) was 501000 M⁻¹ s⁻¹ and the koff (Jack bean urease [3]; pH 7.4, SPR, immobilised urease, PBS pH 7.4) was 0.081 s⁻¹. For the same compound, the Ki (Jack bean urease [4]) was 1.28 µM, the Type of inhibition (Jack bean urease [4]; Jack bean urease) was “Reversible” and the “Ki'” value (Jack bean urease [4]; dissociation constant of urease-urea-inhibitor complex) was 2.84 µM. The viability at 72 h, 25 µg/mL [5] was 114%.
